Measured values: ChEMBL document CHEMBL5365497, “Developing Novel Coumarin-Containing Azoles Antifungal Agents by the Scaffold Merging Strategy for Treating Azole-Resistant Candidiasis” (J Med Chem, 2023)
Converted amounts (≈) assume the structure as drawn. The source made the active and inactive calls. The calls are words filed in the database; no cut-off is given here.

Key:
Candida albicans [1] = assay: Antifungal activity against Candida albicans CPCC400616 assessed as fungal growth inhibition by CLSI based microdilution method; type: functional
Candida albicans [2] = assay: Antifungal activity against Candida albicans SC5314 assessed as fungal growth inhibition by CLSI based microdilution method; type: functional
Candida parapsilosis = assay: Antifungal activity against Candida parapsilosis assessed as fungal growth inhibition by CLSI based microdilution method; type: functional; conditions: Lodderomyces parapsilosis
Nakaseomyces glabratus = assay: Antifungal activity against Candida glabrata assessed as fungal growth inhibition by CLSI based microdilution method; type: functional
Pichia kudriavzevii = assay: Antifungal activity against Pichia kudriavzevii assessed as fungal growth inhibition by CLSI based microdilution method; type: functional
Candida tropicalis = assay: Antifungal activity against Candida tropicalis assessed as fungal growth inhibition by CLSI based microdilution method; type: functional
Cryptococcus neoformans = assay: Antifungal activity against Cryptococcus neoformans assessed as fungal growth inhibition by CLSI based microdilution method; type: functional
[3] = target: T1, Lanosterol 14-alpha demethylase (Candida albicans (strain SC5314 / ATCC MYA-2876) (Yeast), UniProt P10613); assay: Inhibition of CYP51 in Candida albicans SC5314 assessed as ergosterol level at 0.03125 ug/ml incubated for 24 hrs by GC-MS analysis (reference value: 97.58 %); set-up: scale not given: the % may be the effect or the level left; conditions: at 0.03125 µg/mL
[4] = target: T1, Lanosterol 14-alpha demethylase; assay: Inhibition of CYP51 in Candida albicans SC5314 assessed as increase in eburicol level at 0.03125 ug/ml incubated for 24 hrs by GC-MS analysis; conditions: at 0.03125 µg/mL
[5] = target: T1, Lanosterol 14-alpha demethylase; assay: Inhibition of CYP51 in Candida albicans SC5314 assessed as increase in obtusifoliol level at 0.03125 ug/ml incubated for 24 hrs by GC-MS analysis; conditions: at 0.03125 µg/mL
[6] = target: T1, Lanosterol 14-alpha demethylase; assay: Inhibition of CYP51 in Candida albicans SC5314 assessed as increase in lanosterol level at 0.03125 ug/ml incubated for 24 hrs by GC-MS analysis; conditions: at 0.03125 µg/mL
Candida albicans [7] = assay: Antifungal activity against fluconazole-resistant Candida albicans CaR assessed as fungal growth inhibition by CLSI based microdilution method; type: functional
Candida albicans [8] = assay: Antifungal activity against fluconazole-resistant Candida albicans 17# assessed as fungal growth inhibition by CLSI based microdilution method; type: functional
Candida albicans [9] = assay: Antifungal activity against fluconazole-resistant Candida albicans 632 assessed as fungal growth inhibition by CLSI based microdilution method; type: functional
Candida albicans [10] = assay: Antifungal activity against fluconazole-resistant Candida albicans 904 assessed as fungal growth inhibition by CLSI based microdilution method; type: functional
Candida albicans [11] = assay: Antifungal activity against fluconazole-resistant Candida albicans 901 assessed as fungal growth inhibition by CLSI based microdilution method; type: functional
Candida albicans [12] = assay: Antifungal activity against Candida albicans CPCC400616 assessed as inhibition of yeast to hypha morphological transition at 2 ug/ml incubated for 4 hrs by inverted microscopy; type: functional, organism-based; conditions: dose 2.0 µg/ml
Candida albicans [13] = assay: Antifungal activity against fluconazole-resistant Candida albicans 904 assessed as inhibition of yeast to hypha morphological transition at 16 ug/ml incubated for 4 hrs by inverted microscopy; type: functional, organism-based; conditions: dose 16.0 µg/ml
Candida albicans [14] = assay: Antibiofilm activity against Candida albicans CPCC400616 incubated for 24 hrs by XTT reduction assay; type: functional, organism-based; conditions: dose <= 128.0 µg/ml
Candida albicans [15] = assay: Antibiofilm activity against fluconazole-resistant Candida albicans 904 incubated for 24 hrs by XTT reduction assay; type: functional, organism-based; conditions: dose <= 128.0 µg/ml
Candida albicans [16] = assay: Antifungal activity against Candida albicans CPCC400616 assessed as reduction in EFG1 expression at 2 ug/ml incubated for 12 hrs by RT-PCR analysis; type: functional, organism-based; conditions: dose 2.0 µg/ml
Candida albicans [17] = assay: Antifungal activity against fluconazole-resistant Candida albicans 904 assessed as reduction in EFG1 expression at 16 ug/ml incubated for 12 hrs by RT-PCR analysis; type: functional, organism-based; conditions: dose 16.0 µg/ml
Candida albicans [18] = assay: Antifungal activity against Candida albicans CPCC400616 assessed as reduction in TEC1 expression at 2 ug/ml incubated for 12 hrs by RT-PCR analysis; type: functional, organism-based; conditions: dose 2.0 µg/ml
Candida albicans [19] = assay: Antifungal activity against fluconazole-resistant Candida albicans 904 assessed as reduction in TEC1 expression at 16 ug/ml incubated for 12 hrs by RT-PCR analysis; type: functional, organism-based; conditions: dose 16.0 µg/ml
Candida albicans [20] = assay: Antifungal activity against Candida albicans CPCC400616 assessed as reduction in CPH1 expression at 2 ug/ml incubated for 12 hrs by RT-PCR analysis; type: functional, organism-based; conditions: dose 2.0 µg/ml
Candida albicans [21] = assay: Antifungal activity against fluconazole-resistant Candida albicans 904 assessed as reduction in CPH1 expression at 16 ug/ml incubated for 12 hrs by RT-PCR analysis; type: functional, organism-based; conditions: dose 16.0 µg/ml
Candida albicans [22] = assay: Antifungal activity against Candida albicans CPCC400616 assessed as reduction in ALS3 expression at 2 ug/ml incubated for 12 hrs by RT-PCR analysis; type: functional, organism-based; conditions: dose 2.0 µg/ml
Candida albicans [23] = assay: Antifungal activity against fluconazole-resistant Candida albicans 904 assessed as reduction in ALS3 expression at 16 ug/ml incubated for 12 hrs by RT-PCR analysis; type: functional, organism-based; conditions: dose 16.0 µg/ml
Candida albicans [24] = assay: Antifungal activity against fluconazole-resistant Candida albicans 904 assessed as decrease in ERG11 expression at 16 ug/ml measured after 16 hrs by RT-PCR analysis; type: functional, organism-based; conditions: dose 16.0 µg/ml
Candida albicans [25] = assay: Antifungal activity against fluconazole-resistant Candida albicans 904 assessed as decrease in CDR1 expression at 16 ug/ml measured after 16 hrs by RT-PCR analysis; type: functional, organism-based; conditions: dose 16.0 µg/ml
Candida albicans [26] = assay: Antifungal activity against fluconazole-resistant Candida albicans 904 assessed as decrease in CDR2 expression at 16 ug/ml measured after 16 hrs by RT-PCR analysis; type: functional, organism-based; conditions: dose 16.0 µg/ml
Candida albicans [27] = assay: Antifungal activity against fluconazole-resistant Candida albicans 904 assessed as decrease in MDR1 expression at 16 ug/ml measured after 16 hrs by RT-PCR analysis; type: functional, organism-based; conditions: dose 16.0 µg/ml
Candida albicans [28] = assay: Induction of ROS production in fluconazole-resistant Candida albicans 904 at 64 ug/ml incubated for 30 mins by fluorescence microscopy; type: functional, organism-based; conditions: dose 64.0 µg/ml
[29] = Metabolic stability in mouse liver microsomes assessed as half life incubated for 5 to 60 mins by LC-MS/MS analysis; type: ADME, Microsome; conditions: time 5-60 min
[30] = Stability in mouse plasma assessed as compound remaining at 1 uM measured for 180 mins by LC-MS/MS analysis; type: ADME, cell-free; conditions: read-out: Stability
[31] = Stability in mouse plasma assessed as half life at 1 uM measured for 180 mins by LC-MS/MS analysis; type: ADME, cell-free
[32] = Cytotoxicity against mouse J774.A1 cells assessed as cell growth inhibition by MTT assay; type: toxicity, cell-based
[33] = Cytotoxicity against human MRC5 cells assessed as cell growth inhibition by MTT assay; type: toxicity, cell-based
Cytochrome P450 1A2 = target: T2, Cytochrome P450 1A2 (Homo sapiens, UniProt P05177); assay: Inhibition of CYP1A2 in human liver microsomes using phenacetin as substrate preincubated for 5 mins followed by NADPH addition by LC-MS/MS analysis; type: ADME, Microsome
T2 sequence (P05177 whole entry): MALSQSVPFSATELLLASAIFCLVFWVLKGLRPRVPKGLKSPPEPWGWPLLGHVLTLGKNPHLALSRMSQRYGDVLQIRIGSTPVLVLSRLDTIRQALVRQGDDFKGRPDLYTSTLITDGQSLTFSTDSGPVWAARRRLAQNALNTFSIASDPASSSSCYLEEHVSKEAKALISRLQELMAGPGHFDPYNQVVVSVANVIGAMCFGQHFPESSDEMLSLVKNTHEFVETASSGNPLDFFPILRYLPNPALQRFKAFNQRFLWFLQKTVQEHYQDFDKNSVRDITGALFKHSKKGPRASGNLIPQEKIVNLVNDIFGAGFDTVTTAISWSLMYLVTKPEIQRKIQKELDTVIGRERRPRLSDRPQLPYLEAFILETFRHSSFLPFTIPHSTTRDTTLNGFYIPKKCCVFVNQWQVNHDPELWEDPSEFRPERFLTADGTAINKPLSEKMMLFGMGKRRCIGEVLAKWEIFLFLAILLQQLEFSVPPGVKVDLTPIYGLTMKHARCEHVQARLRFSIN

Cytochrome P450 2C9 = Cytochrome P450 2C9 (Homo sapiens, UniProt P11712); assay: Inhibition of CYP2C9 in human liver microsomes using diclofenac as substrate preincubated for 5 mins followed by NADPH addition by LC-MS/MS analysis; type: ADME, Microsome
Cytochrome P450 2D6 = Cytochrome P450 2D6 (Homo sapiens, UniProt P10635); assay: Inhibition of CYP2D6 in human liver microsomes using dextromethorphan as substrate preincubated for 5 mins followed by NADPH addition by LC-MS/MS analysis; type: ADME, Microsome
Sequence of Cytochrome P450 2D6 (P10635 whole entry): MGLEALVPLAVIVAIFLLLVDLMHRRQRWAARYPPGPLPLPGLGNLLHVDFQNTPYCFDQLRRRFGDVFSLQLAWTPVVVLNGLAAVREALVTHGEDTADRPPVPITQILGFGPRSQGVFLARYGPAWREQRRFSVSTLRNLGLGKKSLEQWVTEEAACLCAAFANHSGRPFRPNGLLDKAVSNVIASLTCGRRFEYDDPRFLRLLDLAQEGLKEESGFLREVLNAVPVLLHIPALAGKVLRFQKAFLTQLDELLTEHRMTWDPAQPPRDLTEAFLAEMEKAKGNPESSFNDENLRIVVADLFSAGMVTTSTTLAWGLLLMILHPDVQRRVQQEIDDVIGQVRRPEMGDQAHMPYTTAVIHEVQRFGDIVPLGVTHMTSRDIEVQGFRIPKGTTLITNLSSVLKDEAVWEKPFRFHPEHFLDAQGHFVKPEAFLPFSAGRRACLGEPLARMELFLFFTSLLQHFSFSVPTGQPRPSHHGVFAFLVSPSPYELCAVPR

T1 sequence (P10613 whole entry): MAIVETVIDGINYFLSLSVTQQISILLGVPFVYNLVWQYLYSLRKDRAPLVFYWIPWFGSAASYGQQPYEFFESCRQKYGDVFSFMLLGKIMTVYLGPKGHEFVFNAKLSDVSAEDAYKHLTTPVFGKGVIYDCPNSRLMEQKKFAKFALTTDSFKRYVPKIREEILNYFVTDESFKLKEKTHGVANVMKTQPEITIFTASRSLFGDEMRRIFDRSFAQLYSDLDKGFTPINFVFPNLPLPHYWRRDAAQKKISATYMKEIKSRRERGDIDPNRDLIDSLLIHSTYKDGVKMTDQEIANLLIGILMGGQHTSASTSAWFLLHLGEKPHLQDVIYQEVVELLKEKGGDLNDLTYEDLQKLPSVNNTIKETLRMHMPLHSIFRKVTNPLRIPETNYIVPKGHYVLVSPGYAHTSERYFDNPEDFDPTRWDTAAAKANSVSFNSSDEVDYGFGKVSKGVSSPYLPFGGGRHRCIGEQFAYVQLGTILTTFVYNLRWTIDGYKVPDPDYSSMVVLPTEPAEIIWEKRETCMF
Sequence of Cytochrome P450 2C9 (P11712 whole entry): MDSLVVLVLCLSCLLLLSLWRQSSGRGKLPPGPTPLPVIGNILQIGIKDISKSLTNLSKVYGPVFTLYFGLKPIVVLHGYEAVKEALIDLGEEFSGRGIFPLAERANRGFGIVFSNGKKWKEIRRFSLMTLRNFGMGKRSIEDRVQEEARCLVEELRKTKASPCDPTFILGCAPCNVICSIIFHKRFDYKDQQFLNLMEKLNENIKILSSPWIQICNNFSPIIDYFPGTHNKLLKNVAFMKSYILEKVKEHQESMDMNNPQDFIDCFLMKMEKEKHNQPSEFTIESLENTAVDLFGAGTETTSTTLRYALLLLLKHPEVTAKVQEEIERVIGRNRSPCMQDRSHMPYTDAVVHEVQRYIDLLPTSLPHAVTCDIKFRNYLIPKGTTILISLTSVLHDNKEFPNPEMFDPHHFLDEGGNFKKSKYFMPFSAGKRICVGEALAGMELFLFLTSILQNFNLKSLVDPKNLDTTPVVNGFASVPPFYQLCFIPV

With O=c1ccc2cc(COC(Cn3ccnc3)c3ccc(Cl)cc3Cl)ccc2o1 (stereo unspecified) as the compound, how does the MIC (Candida albicans [1]) read?
Its MIC is 0.06 µg/mL (≈ 0.144 µM).

What about the MIC (Candida albicans [2]) of the same compound?
The MIC was 0.03 µg/mL (≈ 0.0722 µM).

What about the MIC (Candida parapsilosis) of the same compound?
Its MIC is under 0.25 µg/mL.

And the MIC (Nakaseomyces glabratus)?
Its MIC is 0.25 µg/mL (≈ 0.602 µM).

What about the MIC (Pichia kudriavzevii) of the same compound?
Its MIC is 0.5 µg/mL (≈ 1.2 µM).

What about the MIC (Candida tropicalis) of the same compound?
Its MIC is under 0.25 µg/mL.

And the MIC (Cryptococcus neoformans)?
Its MIC is 4 µg/mL (≈ 9.63 µM).

And the Activity [3]?
The Activity was 0.99%.

And the “inhibition (INH)” value [4]?
Its value is “Active”.

What about the “inhibition (INH)” value [5] of the same compound?
The value was “Active”.

What about the “inhibition (INH)” value [6] of the same compound?
Its value is “Active”.

And the MIC (Candida albicans [7])?
Its MIC is 0.5 µg/mL (≈ 1.2 µM).

What about the MIC (Candida albicans [8]) of the same compound?
Its MIC is 1 µg/mL (≈ 2.41 µM).

And the MIC (Candida albicans [9])?
Its MIC is 16 µg/mL (≈ 38.5 µM).

What about the MIC (Candida albicans [10]) of the same compound?
Its MIC is 8 µg/mL (≈ 19.3 µM).

What about the MIC (Candida albicans [11]) of the same compound?
Its MIC is 32 µg/mL (≈ 77.1 µM).

And the inhibition (Candida albicans [12])?
The inhibition was “Active”.

And the inhibition (Candida albicans [13])?
The inhibition was “Active”.

And the Activity (Candida albicans [14])?
Its Activity is “Dose-Dependent Effect”.

And the Activity (Candida albicans [15])?
The Activity was “Dose-Dependent Effect”.

And the Activity (Candida albicans [16])?
The Activity was “Active”.

What about the Activity (Candida albicans [17]) of the same compound?
The Activity was “Active”.

What about the Activity (Candida albicans [18]) of the same compound?
The Activity was “Active”.

And the Activity (Candida albicans [19])?
The Activity was “Active”.

And the Activity (Candida albicans [20])?
Its Activity is “Active”.

What about the Activity (Candida albicans [21]) of the same compound?
Its Activity is “Active”.

And the Activity (Candida albicans [22])?
The Activity was “Active”.

And the Activity (Candida albicans [23])?
Its Activity is “Active”.

What about the Activity (Candida albicans [24]) of the same compound?
Its Activity is “Active”.

And the Activity (Candida albicans [25])?
Its Activity is “Active”.

What about the Activity (Candida albicans [26]) of the same compound?
Its Activity is “Active”.

What about the Activity (Candida albicans [27]) of the same compound?
The Activity was “Active”.

And the Activity (Candida albicans [28])?
The Activity was “Active”.

What about the half-life [29] of the same compound?
The half-life was 6.09 min.

What about the remaining at 3 h, 1 µM [30] of the same compound?
The remaining at 3 h, 1 µM was 98.7%.

And the half-life at 1 µM [31]?
The half-life at 1 µM was over 6 h.

And the IC50 [32]?
Its IC50 is 24.4 µM.

What about the IC50 [33] of the same compound?
Its IC50 is 78.2 µM.

Which results are given for Clc1ccc(COC(Cn2ccnc2)c2ccc(Cl)cc2Cl)c(Cl)c1 (stereo unspecified) [MICONAZOLE]?
MIC (Candida albicans [1]): 0.25 µg/mL (≈ 0.601 µM); MIC (Candida albicans [2]): 0.03 µg/mL (≈ 0.0721 µM); MIC (Candida parapsilosis): 0.25 µg/mL (≈ 0.601 µM); MIC (Nakaseomyces glabratus): 0.5 µg/mL (≈ 1.2 µM); MIC (Pichia kudriavzevii): 0.5 µg/mL (≈ 1.2 µM); MIC (Candida tropicalis): 1 µg/mL (≈ 2.4 µM); MIC (Cryptococcus neoformans): 0.25 µg/mL (≈ 0.601 µM); IC50 (Cytochrome P450 1A2): 2.62 µM; remaining at 3 h, 1 µM [30]: 94.9%; half-life at 1 µM [31]: > 6 h; IC50 (Cytochrome P450 2C9): 0.115 µM; IC50 (Cytochrome P450 2D6): 0.875 µM; IC50 [32]: 22.2 µM
